Tests used:
Mus musculus [1] = species on record: Mus musculus; test: Effective dose required for maximal electroshock (MES)-induced seizures in mice.; format: functional
[2] = Protective index (TD50/ED50); format: functional
Mus musculus [3] = species on record: Mus musculus; test: Effective dose required for maximal electroshock (MES)-induced seizures in mice in experiment 1; format: functional
Mus musculus [4] = species on record: Mus musculus; test: Effective dose required for maximal electroshock (MES)-induced seizures in mice in experiment 2; format: functional
[5] = Neurologic toxicity determined using horizontal screen test in mice in experiment 1; format: organism-based; conditions: mouse, in vivo
[6] = Neurologic toxicity determined using horizontal screen test in mice in experiment 2; format: organism-based; conditions: mouse, in vivo
[7] = (§1) Neurologic toxicity determined using horizontal screen test in mice; format: organism-based; conditions: mouse, in vivo
[8] = Neurologic toxicity determined using rotarod test in mice; format: organism-based; conditions: mouse, in vivo
Mus musculus [9] = species on record: Mus musculus; test: as §1; format: organism-based; conditions: in vivo

Work on CC(=O)NC(C(=O)NNc1ccccn1)c1ccco1 (centres undefined) yielded an ED50 (Mus musculus [1]; Mus musculus, read-out: ED50) greater than 100 mg/kg.

Molecule CC(=O)N[C@H](C(=O)NCc1ccccc1)c1ccco1 (stereo in doubt; 4) [listing 1 of 2 here] has a PI [2] of 3.9.

In the case of CC(=O)NC(C(=O)NCc1cc[n+]([O-])cc1)c1ccco1 (centres undefined), the ED50 (Mus musculus [1]; Mus musculus, read-out: ED50) is reported as greater than 100 mg/kg.

CC(=O)N[C@H](C(=O)NCc1ccc(C)cc1)c1ccco1 showed an ED50 (Mus musculus [1]; Mus musculus, read-out: ED50) of 43.6 mg/kg.

Work on CC(=O)NC(C(=O)NCc1ccccc1)n1ccnc1 (centres undefined) yielded an ED50 (Mus musculus [1]; Mus musculus, read-out: ED50) greater than 100 mg/kg.

For CC(=O)NC(C(=O)NCc1ccccc1)n1cccn1 (centres undefined), the ED50 (Mus musculus [1]; Mus musculus, read-out: ED50) was 16.5 mg/kg.

With CC(=O)NC(C(=O)NCc1ccccc1)n1cccc1 (centres undefined) the ED50 (Mus musculus [1]; Mus musculus, read-out: ED50) was 80.2 mg/kg.

Work on CC(=O)NC(C(=O)NCc1ccccc1)c1nnn[nH]1 (centres undefined) yielded an ED50 (Mus musculus [3]) greater than 30 mg/kg and an ED50 (Mus musculus [4]) of less than 100 mg/kg.

With CC(=O)N[C@@H](C(=O)NCc1ccccc1)c1ccco1 the ED50 (Mus musculus [1]; Mus musculus, read-out: ED50) was 3.3 mg/kg and the PI [2] was 7.2.

CC(=O)NC(C(=O)NCc1ccccc1)c1nc[nH]n1 (centres undefined) gave an ED50 (Mus musculus [1]; Mus musculus, read-out: ED50) greater than 100 mg/kg.

Molecule CC(=O)NC(C(=O)NCc1ccccc1)c1ccc[nH]1 (centres undefined) has a TD50 [5] greater than 30 mg/kg and a TD50 [6] of less than 100 mg/kg.

In the case of CC(=O)NC(C(=O)NCc1ccc[n+]([O-])c1)c1ccco1 (centres undefined), the ED50 (Mus musculus [1]; Mus musculus, read-out: ED50) is reported as roughly 30 mg/kg.

In the case of CC(=O)NC(C)(C(=O)NCc1ccccc1)c1ccco1 (centres undefined), the ED50 (Mus musculus [1]; Mus musculus, read-out: ED50) is reported as greater than 300 mg/kg.

For CC(=O)NC(C(=O)NCc1ccccc1)c1ncon1 (centres undefined), the ED50 (Mus musculus [3]) was greater than 100 mg/kg and the ED50 (Mus musculus [4]) was less than 300 mg/kg.

In the case of CC(=O)N[C@@H](C(=O)NCc1ccc(F)cc1)c1ccco1, the ED50 (Mus musculus [1]; Mus musculus, read-out: ED50) is reported as 3.5 mg/kg, the TD50 [7] is reported as 14.4 mg/kg and the PI [2] is reported as 4.1.

For CC(=O)NC(C(=O)NCc1ccc(F)cc1)c1ccco1 (centres undefined), the PI [2] was 11.3.

Molecule CC(=O)NC(C(=O)NCc1ccccc1)c1ccsc1 (centres undefined) has a TD50 [7] greater than 100 mg/kg.

With CC(=O)NC(C(=O)NCc1ccccc1)C1CCCO1 (centres undefined) the ED50 (Mus musculus [1]; Mus musculus, read-out: ED50) was 89.8 mg/kg.

CC(=O)NC(C(=O)NCc1ccccc1)n1cnnn1 (centres undefined) gave an ED50 (Mus musculus [1]; Mus musculus, read-out: ED50) greater than 300 mg/kg.

For CC(=O)NC(C(=O)NCc1ccncc1)c1ccco1 (centres undefined), the ED50 (Mus musculus [1]; Mus musculus, read-out: ED50) was greater than 100 mg/kg.

Work on C/C(S)=N/C(/C(S)=N/Cc1ccccc1)c1ccco1 (centres undefined) yielded an ED50 (Mus musculus [1]; Mus musculus, read-out: ED50) greater than 100 mg/kg.

With CC(=O)NC(C(=O)NCc1ccccc1)c1ccccc1 (centres undefined) the TD50 [7] was greater than 40 mg/kg.

For CC(=O)NC(C(=O)NCc1ccccc1)c1c[nH]cn1 (centres undefined), the ED50 (Mus musculus [1]; Mus musculus, read-out: ED50) was greater than 100 mg/kg.

CC(=O)NC(C(=O)NCc1cccnc1)c1ccco1 (centres undefined) gave an ED50 (Mus musculus [1]; Mus musculus, read-out: ED50) of roughly 30 mg/kg.

Work on CC(=O)NC(C(=O)NCc1ccccc1)c1cccs1 (centres undefined) yielded a TD50 [5] greater than 30 mg/kg and a TD50 [6] of less than 100 mg/kg.

With CC(=O)NC(C(=O)NCc1ccccc1)c1ccco1 (centres undefined) the TD50 [7] was roughly 40 mg/kg and the PI [2] was 3.9.

Molecule CC(=O)NC(C(=O)NCc1ccccc1)c1ncco1 (centres undefined) has an ED50 (Mus musculus [1]; Mus musculus, read-out: ED50) of 10.4 mg/kg, a TD50 [8] of 38.6 mg/kg and a PI [2] of 3.7.

C/C(S)=N\C(C(=O)NCc1ccccc1)c1ccco1 (centres undefined) gave an ED50 (Mus musculus [1]; Mus musculus, read-out: ED50) of 18.4 mg/kg.

Molecule CC(=O)NC(C(=O)NCc1ccccc1)c1ncc[nH]1 (centres undefined) has an ED50 (Mus musculus [1]; Mus musculus, read-out: ED50) greater than 100 mg/kg.

CC(=O)NC(C(=O)NCc1ccccc1)n1cncn1 (centres undefined) showed an ED50 (Mus musculus [3]) greater than 30 mg/kg and an ED50 (Mus musculus [4]) of less than 100 mg/kg.

In the case of CC(=O)N[C@H](C(=O)NCc1ccc(C(F)(F)F)cc1)c1ccco1, the ED50 (Mus musculus [1]; Mus musculus, read-out: ED50) is reported as 22.8 mg/kg.

With CC(=O)N[C@H](C(=O)NCc1ccccc1)c1ccco1 (stereo in doubt; (S)-4) the ED50 (Mus musculus [1]) was greater than 25 mg/kg and the TD50 (Mus musculus [9]) was greater than 200 mg/kg.

With CC(=O)NC(C(=O)NCc1ccccc1)c1nccs1 (centres undefined) the ED50 (Mus musculus [1]; Mus musculus, read-out: ED50) was 12.1 mg/kg, the TD50 [8] was 69.1 mg/kg and the PI [2] was 5.7.

For CC(=O)N[C@H](C(=O)NCc1ccccc1)c1ccco1 (stereo in doubt; 4) [listing 2 of 2 here], the ED50 (Mus musculus [1]) was 10.3 mg/kg and the TD50 (Mus musculus [9]) was ~ 40 mg kg-1.

Reference: ChEMBL document CHEMBL1126877, “Synthesis and anticonvulsant activities of alpha-heterocyclic alpha-acetamido-N-benzylacetamide derivatives” (J Med Chem, 1993)
